Experimental data: patent US11596639B2, “Substituted indole Mcl-1 inhibitors” (Vanderbilt University, priority 2016, dated 2023)
Where two headings read alike, the source gives them in different places.

What was measured:
[1] = tested on: H929 human cancer cell lines; assay: Cellular viability / proliferation (Cell TiterGlo, 72 h); assay type: cell-based
How it was run: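 H929 cells plated at 1,000/well in 10% FBS medium received a 2-fold serial compound dilution (top 50 μM, DMSO <1%) 24 h later. After 72 h, viability was read by CellTiter-Glo luminescence. IC50 came from a four-parameter fit.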

[2] = target: Mcl-1 (Homo sapiens (Human), UniProt Q07820); assay: TR-FRET binding assay, FITC-Bak peptide and MBP-tagged Mcl-1; details: read-out: Ki for Inhibition of Mcl-1 by TR-FRET assay
Experimental: Compounds are diluted in DMSO in a 16-point, semilog serial dilution scheme. […] The plate was mixed and incubated for 3 hours at room temperature. […] TR-FRET signal is plotted and IC50 and Ki values are calculated in the same manner as the fluorescence polarization anisotropy based competition assays.

[3] = Homo sapiens, NCI-H929, 72 h, read-out: GI50 on cellular proliferation of H929 human cancer cell lines, H929 cells, 72 h, Cell TiterGlo, 10% FBS

Chain of Mcl-1 (Q07820 172-327): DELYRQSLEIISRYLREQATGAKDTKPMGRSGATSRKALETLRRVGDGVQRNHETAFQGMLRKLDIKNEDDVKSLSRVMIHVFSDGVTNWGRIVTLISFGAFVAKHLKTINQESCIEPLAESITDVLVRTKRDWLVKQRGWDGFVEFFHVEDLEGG

Cc1cc(OCCCc2c3n(c4c(-c5c(C)nn(C)c5C)c(Cl)ccc24)[C@H](C)CN(c2cc(NC(=O)CN(C)C)cc4c(C(=O)O)cn(C)c24)C3=O)cc(C)c1Cl [Example 542, (R)-7-(7-Chloro-10-(3-(4-chloro-3,5-dimethylphenoxy)propyl)-4-methyl-1-oxo-6-(1,3,5-trimethyl-1H-pyrazol-4-yl)-3,4-dihydropyrazino[1,2-a]indol-2(1H)-yl)-5-(2-(dimethylamino)acetamido)-1-methyl-1H-indole-3-carboxylic acid]
GI50 [1, 3]: 3.3 µM | Ki [2]: 0.00048 µM

Cc1cc(OCCCc2c3n(c4c(-c5c(C)nn(C)c5C)c(Cl)ccc24)[C@H](C)CN(c2cn(CC(=O)N4CCN(C)CC4)c4ccc(-c5ncn(C)n5)cc24)C3=O)cc(C)c1Cl [Example 546, (R)-7-Chloro-10-(3-(4-chloro-3,5-dimethylphenoxy)propyl)-4-methyl-2-(5-(1-methyl-1H-1,2,4-triazol-3-yl)-1-(2-(4-methylpiperazin-1-yl)-2-oxoethyl)-1H-indol-3-yl)-6-(1,3,5-trimethyl-1H-pyrazol-4-yl)-3,4-dihydropyrazino[1,2-a]indol-1(2H)-one]
GI50 [1, 3]: 0.42 µM | Ki [2]: 0.00038 µM

Cc1cc(OCCCc2c3n(c4c(-c5c(C)nn(C)c5C)c(Cl)ccc24)[C@H](C)CN(c2cc(CN4CCN(C)CC4)cc4c(C(=O)O)cn(C)c24)C3=O)cc(C)c1Cl [Example 490, (R)-7-(7-Chloro-10-(3-(4-chloro-3,5-dimethylphenoxy)propyl)-4-methyl-1-oxo-6-(1,3,5-trimethyl-1H-pyrazol-4-yl)-3,4-dihydropyrazino[1,2-a]indol-2(1H)-yl)-1-methyl-5-((4-methylpiperazin-1-yl)methyl)-1H-indole-3-carboxylic acid]
GI50 [1, 3]: 0.81 µM | Ki [2]: 0.00029 µM

Cc1cc(N2C[C@@H](C)n3c(c(CCCOc4cc(C)c(Cl)c(C)c4)c4ccc(Cl)c(-c5c(C)nn(C)c5C)c43)C2=O)c2c(c1)cc(C(=O)O)n2Cc1cc(C#N)ccn1 [Example 556, (R)-7-(7-chloro-10-(3-(4-chloro-3,5-dimethylphenoxy)propyl)-4-methyl-1-oxo-6-(1,3,5-trimethyl-1H-pyrazol-4-yl)-3,4-dihydropyrazino[1,2-a]indol-2(1H)-yl)-1-((4-cyanopyridin-2-yl)methyl)-5-methyl-1H-indole-2-carboxylic acid]
GI50 [1, 3]: 0.28 µM | Ki [2]: < 0.0002 µM

COCCn1c(C(=O)O)cc2cc(C)cc(N3C[C@@H](C)n4c(c(CCCOc5cc(C)c(Cl)c(C)c5)c5ccc(Cl)c(-c6c(C)ncnc6C)c54)C3=O)c21 [Example 594, (R)-7-(7-chloro-10-(3-(4-chloro-3,5-dimethylphenoxy)propyl)-6-(4,6-dimethylpyrimidin-5-yl)-4-methyl-1-oxo-3,4-dihydropyrazino[1,2-a]indol-2(1H)-yl)-1-(2-methoxyethyl)-5-methyl-1H-indole-2-carboxylic acid]
GI50 [1, 3]: 0.23 µM | Ki [2]: < 0.0002 µM

Cc1ccnc(-n2cnc(-c3ccc4c(c3)c(N3C[C@@H](C)n5c(c(CCCOc6cc(C)c(Cl)c(C)c6)c6ccc(Cl)c(-c7c(C)nn(C)c7C)c65)C3=O)cn4C)n2)n1 [Example 670, (R)-7-Chloro-10-(3-(4-chloro-3,5-dimethylphenoxy)propyl)-4-methyl-2-(1-methyl-5-(1-(4-methylpyrimidin-2-yl)-1H-1,2,4-triazol-3-yl)-1H-indol-3-yl)-6-(1,3,5-trimethyl-1H-pyrazol-4-yl)-3,4-dihydropyrazino[1,2-a]indol-1(2H)-one]
GI50 [1, 3]: < 0.2 µM | Ki [2]: < 0.0002 µM

COCc1cc(N2C[C@@H](C)n3c(c(CCCOc4cc(C)c(Cl)c(C)c4)c4ccc(Cl)c(-c5c(C)nn(C)c5C)c43)C2=O)c2c(c1)cc(C(=O)O)n2C [Example 607, (R)-7-(7-chloro-10-(3-(4-chloro-3,5-dimethylphenoxy)propyl)-4-methyl-1-oxo-6-(1,3,5-trimethyl-1H-pyrazol-4-yl)-3,4-dihydropyrazino[1,2-a]indol-2(1H)-yl)-5-(methoxymethyl)-1-methyl-1H-indole-2-carboxylic acid]
GI50 [1, 3]: < 0.2 µM | Ki [2]: < 0.0002 µM

Cc1cc(OCCCc2c3n(c4c(-c5c(C)nn(C)c5C)c(Cl)ccc24)[C@H](C)CN(c2cn(C)c4ccc(-c5ncn(-c6ccccn6)n5)cc24)C3=O)cc(C)c1Cl [Example 647, (R)-7-Chloro-10-(3-(4-chloro-3,5-dimethylphenoxy)propyl)-4-methyl-2-(1-methyl-5-(1-(pyridin-2-yl)-1H-1,2,4-triazol-3-yl)-1H-indol-3-yl)-6-(1,3,5-trimethyl-1H-pyrazol-4-yl)-3,4-dihydropyrazino[1,2-a]indol-1(2H)-one]
GI50 [1, 3]: 1.1 µM | Ki [2]: 0.00032 µM

Cc1cc(OCCCc2c3n(c4c(-c5c(C)nn(C)c5C)c(Cl)ccc24)[C@H](C)CN(c2cc(NCCN4CCCC4)cc4c(C(=O)O)cn(C)c24)C3=O)cc(C)c1Cl [Example 486, (R)-7-(7-Chloro-10-(3-(4-chloro-3,5-dimethylphenoxy)propyl)-4-methyl-1-oxo-6-(1,3,5-trimethyl-1H-pyrazol-4-yl)-3,4-dihydropyrazino[1,2-a]indol-2(1H)-yl)-1-methyl-5-((2-(pyrrolidin-1-yl)ethyl)amino)-1H-indole-3-carboxylic acid]
GI50 [1, 3]: 2.9 µM | Ki [2]: 0.0014 µM

Cc1cc(OCCCc2c3n(c4c(-c5c(C)ncnc5C)c(Cl)ccc24)[C@H](C)CN(c2cn(C)c4cnc(C(=O)O)cc24)C3=O)cc(C)c1Cl [Example 640, (R)-3-(7-chloro-10-(3-(4-chloro-3,5-dimethylphenoxy)propyl)-6-(4,6-dimethylpyrimidin-5-yl)-4-methyl-1-oxo-3,4-dihydropyrazino[1,2-a]indol-2(1H)-yl)-1-methyl-1H-pyrrolo[2,3-c]pyridine-5-carboxylic acid]
GI50 [1, 3]: 8.1 µM | Ki [2]: < 0.0002 µM

Cc1cc(OCCCc2c3n(c4c(-c5c(C)nn(C)c5C)c(Cl)ccc24)[C@H](C)CN(c2cn(CC(=O)N(C)C)c4ccc(-c5ncn(Cc6ccccn6)n5)cc24)C3=O)cc(C)c1Cl [Example 638, (R)-2-(3-(7-Chloro-10-(3-(4-chloro-3,5-dimethylphenoxy)propyl)-4-methyl-1-oxo-6-(1,3,5-trimethyl-1H-pyrazol-4-yl)-3,4-dihydropyrazino[1,2-a]indol-2(1H)-yl)-5-(1-(pyridin-2-ylmethyl)-1H-1,2,4-triazol-3-yl)-1H-indol-1-yl)-N,N-dimethylacetamide]
GI50 [1, 3]: 0.6 µM | Ki [2]: 0.0017 µM

Cc1cc(OCCCc2c3n(c4c(-c5c(C)nn(C)c5C)c(Cl)ccc24)[C@H](C)CN(c2cn(C)c4ccc(-c5cncnc5)cc24)C3=O)cc(C)c1Cl [Example 653, (R)-7-Chloro-10-(3-(4-chloro-3,5-dimethylphenoxy)propyl)-4-methyl-2-(1-methyl-5-(pyrimidin-5-yl)-1H-indol-3-yl)-6-(1,3,5-trimethyl-1H-pyrazol-4-yl)-3,4-dihydropyrazino[1,2-a]indol-1(2H)-one]
GI50 [1, 3]: 1.9 µM | Ki [2]: 0.015 µM

Cc1cc(OCCCc2c3n(c4c(-c5c(C)nn(C)c5C)c(Cl)ccc24)[C@H](C)CN(c2cc(CN4CCCC4)cc4c(C(=O)O)cn(C)c24)C3=O)cc(C)c1Cl [Example 550, (R)-7-(7-chloro-10-(3-(4-chloro-3,5-dimethylphenoxy)propyl)-4-methyl-t-oxo-6-(1,3,5-trimethyl-1H-pyrazol-4-yl)-3,4-dihydropyrazino[1,2-a]indol-2(1H)-yl)-1-methyl-5-(pyrrolidin-1-ylmethyl)-1H-indole-3-carboxylic acid]
GI50 ([1]; H929 cells, 72 h, Cell TiterGlo, 10% FBS, read-out: GI50 on cellular proliferation of H929 human cancer cell lines): 1.2 µM | Ki [2]: 0.00052 µM

COCCN(C)c1cc(N2C[C@@H](C)n3c(c(CCCOc4cc(C)c(Cl)c(C)c4)c4ccc(Cl)c(-c5c(C)nn(C)c5C)c43)C2=O)c2c(c1)cc(C(=O)O)n2C [Example 682, (R)-7-(7-chloro-10-(3-(4-chloro-3,5-dimethylphenoxy)propyl)-4-methyl-1-oxo-6-(1,3,5-trimethyl-1H-pyrazol-4-yl)-3,4-dihydropyrazino[1,2-a]indol-2(1H)-yl)-5-((2-methoxyethyl)(methyl)amino)-1-methyl-1H-indole-2-carboxylic acid]
GI50 [1, 3]: 0.34 µM | Ki [2]: < 0.0002 µM

Cc1cc(OCCCc2c3n(c4c(-c5c(C)nn(C)c5C)c(Cl)ccc24)[C@H](C)CN(c2cn(C)c4ccc(-c5nn[nH]n5)nc24)C3=O)cc(C)c1Cl [Example 687, (R)-7-chloro-10-(3-(4-chloro-3,5-dimethylphenoxy)propyl)-4-methyl-2-(1-methyl-5-(2H-tetrazol-5-yl)-1H-pyrrolo[3,2-b]pyridin-3-yl)-6-(1,3,5-trimethyl-1H-pyrazol-4-yl)-3,4-dihydropyrazino[1,2-a]indol-1(2H)-one]
GI50 [1, 3]: 0.33 µM | Ki [2]: < 0.0002 µM

Cc1cc(N2C[C@@H](C)n3c(c(CCCOc4cc(C)c(Cl)c(C)c4)c4ccc(Cl)c(-c5c(C)ncnc5C)c43)C2=O)c2c(c1)cc(C(=O)O)n2Cc1cccc(C)n1 [Example 576, (R)-7-(7-chloro-10-(3-(4-chloro-3,5-dimethylphenoxy)propyl)-6-(4,6-dimethylpyrimidin-5-yl)-4-methyl-1-oxo-3,4-dihydropyrazino[1,2-a]indol-2(1H)-yl)-5-methyl-1-((6-methylpyridin-2-yl)methyl)-1H-indole-2-carboxylic acid]
GI50 [1, 3]: 0.35 µM | Ki [2]: < 0.0002 µM

Cc1cc(OCCCc2c3n(c4c(-c5c(C)ncnc5C)c(Cl)ccc24)[C@H](C)CN(c2cn(C)c4ccc(C(=O)O)nc24)C3=O)cc(C)c1Cl [Example 651, (R)-3-(7-chloro-10-(3-(4-chloro-3,5-dimethylphenoxy)propyl)-6-(4,6-dimethylpyrimidin-5-yl)-4-methyl-1-oxo-3,4-dihydropyrazino[1,2-a]indol-2(1H)-yl)-1-methyl-1H-pyrrolo[3,2-b]pyridine-5-carboxylic acid]
GI50 [1, 3]: 0.29 µM | Ki [2]: < 0.0002 µM
